Assay results reported in ChEMBL document CHEMBL4715706, “Discovery of Benzotriazolo[4,3-d][1,4]diazepines as Orally Active Inhibitors of BET Bromodomains” (ACS Med Chem Lett, 2016).

test system: not listed separately; assay: Intrinsic clearance in rat liver microsomes; settings: not given

SMILES | microsomal CLint
Cc1noc2c1-c1ccc(-c3cnn(CC(N)=O)c3)cc1N(c1ccc(C#N)cc1)CC2C (stereo not given) | 62 µL/min/mg
Cc1noc2c1-c1ccc(-c3ccc(=O)n(C)c3)cc1N(c1ccc(C#N)cc1)CC2C (stereo not given) | 71 µL/min/mg
Cc1noc2c1-c1ccccc1N(c1ccc(C#N)cc1)CC2 | 24 µL/min/mg
Cc1noc2c1-c1ccc(-c3ccc(N)nc3)cc1N(c1ccc(C#N)cc1)CC2C (stereo not given) | 210 µL/min/mg
Cc1noc2c1-c1ccc(-c3ccc(N)nc3)cc1N(c1ccc(C#N)cc1)CC2 | 195 µL/min/mg

The remaining lines, values ahead:

microsomal CLint | SMILES
74 µL/min/mg | CCNC(=O)CC1CN(c2ccc(Cl)cc2)c2ccccc2-n2c(C)nnc21 (stereo not given)
34 µL/min/mg | Cc1nnc2n1-c1ccc(-c3ccc(N)nc3)cc1N(c1ccc(Cl)cc1)CC2C (stereo not given)
65 µL/min/mg | Cc1nnc2n1-c1ccccc1N(c1ccc(Cl)cc1)C(C)C2 (stereo not given)
154 µL/min/mg | Cc1nnc2n1-c1ccc(-c3cnn(C)c3)cc1N(c1ccc(Cl)cc1)CC2
22 µL/min/mg | Cc1noc2c1-c1ccc(-c3cnn(C)c3)cc1N(c1ccc(C#N)cc1)CC2CC(N)=O (stereo not given)

target: Bromodomain-containing protein 4 (Homo sapiens, UniProt O60885); settings: not given

SMILES | IC50
Cc1noc2c1-c1ccc(-c3cnn(CC(N)=O)c3)cc1N(c1ccc(C#N)cc1)CC2C (stereo not given) | 31 nM
Cc1noc2c1-c1ccc(-c3ccc(=O)n(C)c3)cc1N(c1ccc(C#N)cc1)CC2C (stereo not given) | 32 nM
Cc1noc2c1-c1ccccc1N(c1ccc(C#N)cc1)CC2 | 550 nM
Cc1noc2c1-c1ccc(-c3ccc(N)nc3)cc1N(c1ccc(C#N)cc1)CC2C (stereo not given) | 36 nM
Cc1noc2c1-c1ccc(-c3ccc(N)nc3)cc1N(c1ccc(C#N)cc1)CC2 | 64 nM

The remaining lines, values ahead:

IC50 | SMILES
2100 nM | CCNC(=O)CC1CN(c2ccc(Cl)cc2)c2ccccc2-n2c(C)nnc21 (stereo not given)
26 nM | Cc1nnc2n1-c1ccc(-c3ccc(N)nc3)cc1N(c1ccc(Cl)cc1)CC2C (stereo not given)
1200 nM | Cc1nnc2n1-c1ccccc1N(c1ccc(Cl)cc1)C(C)C2 (stereo not given)
44 nM | Cc1nnc2n1-c1ccc(-c3cnn(C)c3)cc1N(c1ccc(Cl)cc1)CC2
310 nM | Cc1noc2c1-c1ccc(-c3cnn(C)c3)cc1N(c1ccc(C#N)cc1)CC2CC(N)=O (stereo not given)

test system: not listed separately; assay: Intrinsic clearance in mouse liver microsomes; settings: not given

SMILES | microsomal CLint
Cc1noc2c1-c1ccc(-c3cnn(CC(N)=O)c3)cc1N(c1ccc(C#N)cc1)CC2C (stereo not given) | 44 µL/min/mg
Cc1noc2c1-c1ccc(-c3ccc(=O)n(C)c3)cc1N(c1ccc(C#N)cc1)CC2C (stereo not given) | 64 µL/min/mg
Cc1noc2c1-c1ccccc1N(c1ccc(C#N)cc1)CC2 | 22 µL/min/mg
Cc1noc2c1-c1ccc(-c3ccc(N)nc3)cc1N(c1ccc(C#N)cc1)CC2C (stereo not given) | 44 µL/min/mg
Cc1noc2c1-c1ccc(-c3ccc(N)nc3)cc1N(c1ccc(C#N)cc1)CC2 | 101 µL/min/mg

More lines, now with the values ahead:

microsomal CLint | SMILES
52 µL/min/mg | CCNC(=O)CC1CN(c2ccc(Cl)cc2)c2ccccc2-n2c(C)nnc21 (stereo not given)
77 µL/min/mg | Cc1nnc2n1-c1ccc(-c3cnn(C)c3)cc1N(c1ccc(Cl)cc1)CC2
37 µL/min/mg | Cc1noc2c1-c1ccc(-c3cnn(C)c3)cc1N(c1ccc(C#N)cc1)CC2CC(N)=O (stereo not given)

test system: not listed separately; assay: Protein binding in mouse plasma; settings: not given

SMILES | fraction unbound
Cc1noc2c1-c1ccc(-c3cnn(CC(N)=O)c3)cc1N(c1ccc(C#N)cc1)CC2C (stereo not given) | 0.04
Cc1noc2c1-c1ccc(-c3ccc(=O)n(C)c3)cc1N(c1ccc(C#N)cc1)CC2C (stereo not given) | 0.01
Cc1noc2c1-c1ccccc1N(c1ccc(C#N)cc1)CC2 | < 0.01
Cc1noc2c1-c1ccc(-c3ccc(N)nc3)cc1N(c1ccc(C#N)cc1)CC2C (stereo not given) | 0.01
Cc1noc2c1-c1ccc(-c3ccc(N)nc3)cc1N(c1ccc(C#N)cc1)CC2 | < 0.01

The remaining lines, values ahead:

fraction unbound | SMILES
0.08 | CCNC(=O)CC1CN(c2ccc(Cl)cc2)c2ccccc2-n2c(C)nnc21 (stereo not given)
0.02 | Cc1nnc2n1-c1ccc(-c3ccc(N)nc3)cc1N(c1ccc(Cl)cc1)CC2C (stereo not given)
0.03 | Cc1nnc2n1-c1ccc(-c3cnn(C)c3)cc1N(c1ccc(Cl)cc1)CC2
0.04 | Cc1noc2c1-c1ccc(-c3cnn(C)c3)cc1N(c1ccc(C#N)cc1)CC2CC(N)=O (stereo not given)

test system: not listed separately; assay: Inhibition of BET in human THP-1 cells assessed as suppression of LPS-induced IL-6 release measured after 16 hrs by chemiluminescence ELISA; format: cell-based; settings: THP-1, 16 h

SMILES | EC50
Cc1noc2c1-c1ccc(-c3cnn(CC(N)=O)c3)cc1N(c1ccc(C#N)cc1)CC2C (stereo not given) | 67 nM
Cc1noc2c1-c1ccc(-c3ccc(=O)n(C)c3)cc1N(c1ccc(C#N)cc1)CC2C (stereo not given) | 94 nM
Cc1noc2c1-c1ccccc1N(c1ccc(C#N)cc1)CC2 | 4600 nM
Cc1noc2c1-c1ccc(-c3ccc(N)nc3)cc1N(c1ccc(C#N)cc1)CC2C (stereo not given) | 78 nM
Cc1noc2c1-c1ccc(-c3ccc(N)nc3)cc1N(c1ccc(C#N)cc1)CC2 | 380 nM

The remaining lines, values ahead:

EC50 | SMILES
1800 nM | CCNC(=O)CC1CN(c2ccc(Cl)cc2)c2ccccc2-n2c(C)nnc21 (stereo not given)
16 nM | Cc1nnc2n1-c1ccc(-c3ccc(N)nc3)cc1N(c1ccc(Cl)cc1)CC2C (stereo not given)
3100 nM | Cc1nnc2n1-c1ccccc1N(c1ccc(Cl)cc1)C(C)C2 (stereo not given)
130 nM | Cc1nnc2n1-c1ccc(-c3cnn(C)c3)cc1N(c1ccc(Cl)cc1)CC2
810 nM | Cc1noc2c1-c1ccc(-c3cnn(C)c3)cc1N(c1ccc(C#N)cc1)CC2CC(N)=O (stereo not given)

test system: not listed separately; assay: Intrinsic clearance in dog liver microsomes; settings: not given

SMILES | microsomal CLint
Cc1noc2c1-c1ccc(-c3cnn(CC(N)=O)c3)cc1N(c1ccc(C#N)cc1)CC2C (stereo not given) | 22 µL/min/mg
Cc1noc2c1-c1ccc(-c3ccc(=O)n(C)c3)cc1N(c1ccc(C#N)cc1)CC2C (stereo not given) | 65 µL/min/mg
Cc1noc2c1-c1ccccc1N(c1ccc(C#N)cc1)CC2 | 18 µL/min/mg
Cc1noc2c1-c1ccc(-c3ccc(N)nc3)cc1N(c1ccc(C#N)cc1)CC2C (stereo not given) | 240 µL/min/mg
Cc1noc2c1-c1ccc(-c3ccc(N)nc3)cc1N(c1ccc(C#N)cc1)CC2 | 165 µL/min/mg

Next, values leading:

microsomal CLint | SMILES
33 µL/min/mg | CCNC(=O)CC1CN(c2ccc(Cl)cc2)c2ccccc2-n2c(C)nnc21 (stereo not given)
94 µL/min/mg | Cc1nnc2n1-c1ccc(-c3ccc(N)nc3)cc1N(c1ccc(Cl)cc1)CC2C (stereo not given)
91 µL/min/mg | Cc1nnc2n1-c1ccc(-c3cnn(C)c3)cc1N(c1ccc(Cl)cc1)CC2
69 µL/min/mg | Cc1noc2c1-c1ccc(-c3cnn(C)c3)cc1N(c1ccc(C#N)cc1)CC2CC(N)=O (stereo not given)

test system: not listed separately; assay: Protein binding in rat plasma; format: ADME, cell-free; settings: read-out: PPB (converted)

SMILES | fraction unbound
Cc1noc2c1-c1ccc(-c3cnn(CC(N)=O)c3)cc1N(c1ccc(C#N)cc1)CC2C (stereo not given) | 0.03
Cc1noc2c1-c1ccc(-c3ccc(=O)n(C)c3)cc1N(c1ccc(C#N)cc1)CC2C (stereo not given) | 0.03
Cc1noc2c1-c1ccccc1N(c1ccc(C#N)cc1)CC2 | < 0.01
Cc1noc2c1-c1ccc(-c3ccc(N)nc3)cc1N(c1ccc(C#N)cc1)CC2C (stereo not given) | 0.02
Cc1noc2c1-c1ccc(-c3ccc(N)nc3)cc1N(c1ccc(C#N)cc1)CC2 | 0.01

Next, values leading:

fraction unbound | SMILES
0.13 | CCNC(=O)CC1CN(c2ccc(Cl)cc2)c2ccccc2-n2c(C)nnc21 (stereo not given)
0.03 | Cc1nnc2n1-c1ccc(-c3ccc(N)nc3)cc1N(c1ccc(Cl)cc1)CC2C (stereo not given)
0.03 | Cc1nnc2n1-c1ccccc1N(c1ccc(Cl)cc1)C(C)C2 (stereo not given)
0.05 | Cc1nnc2n1-c1ccc(-c3cnn(C)c3)cc1N(c1ccc(Cl)cc1)CC2
0.06 | Cc1noc2c1-c1ccc(-c3cnn(C)c3)cc1N(c1ccc(C#N)cc1)CC2CC(N)=O (stereo not given)

test system: not listed separately; assay: Protein binding in dog plasma; settings: not given

SMILES | fraction unbound
Cc1noc2c1-c1ccc(-c3cnn(CC(N)=O)c3)cc1N(c1ccc(C#N)cc1)CC2C (stereo not given) | 0.01
Cc1noc2c1-c1ccc(-c3ccc(=O)n(C)c3)cc1N(c1ccc(C#N)cc1)CC2C (stereo not given) | 0.02
Cc1noc2c1-c1ccccc1N(c1ccc(C#N)cc1)CC2 | < 0.01
Cc1noc2c1-c1ccc(-c3ccc(N)nc3)cc1N(c1ccc(C#N)cc1)CC2C (stereo not given) | < 0.01
Cc1noc2c1-c1ccc(-c3ccc(N)nc3)cc1N(c1ccc(C#N)cc1)CC2 | < 0.01

Now from value to compound:

fraction unbound | SMILES
0.09 | CCNC(=O)CC1CN(c2ccc(Cl)cc2)c2ccccc2-n2c(C)nnc21 (stereo not given)
0.03 | Cc1nnc2n1-c1ccc(-c3ccc(N)nc3)cc1N(c1ccc(Cl)cc1)CC2C (stereo not given)
0.04 | Cc1nnc2n1-c1ccc(-c3cnn(C)c3)cc1N(c1ccc(Cl)cc1)CC2
0.02 | Cc1noc2c1-c1ccc(-c3cnn(C)c3)cc1N(c1ccc(C#N)cc1)CC2CC(N)=O (stereo not given)

test system: not listed separately; assay: Protein binding in human plasma; format: ADME, cell-free; settings: read-out: PPB (converted)

SMILES | fraction unbound
Cc1noc2c1-c1ccc(-c3cnn(CC(N)=O)c3)cc1N(c1ccc(C#N)cc1)CC2C (stereo not given) | 0.01
Cc1noc2c1-c1ccc(-c3ccc(=O)n(C)c3)cc1N(c1ccc(C#N)cc1)CC2C (stereo not given) | 0.02
Cc1noc2c1-c1ccccc1N(c1ccc(C#N)cc1)CC2 | < 0.01
Cc1noc2c1-c1ccc(-c3ccc(N)nc3)cc1N(c1ccc(C#N)cc1)CC2C (stereo not given) | < 0.01
Cc1noc2c1-c1ccc(-c3ccc(N)nc3)cc1N(c1ccc(C#N)cc1)CC2 | < 0.01

Continued, values first:

fraction unbound | SMILES
0.09 | CCNC(=O)CC1CN(c2ccc(Cl)cc2)c2ccccc2-n2c(C)nnc21 (stereo not given)
0.02 | Cc1nnc2n1-c1ccc(-c3ccc(N)nc3)cc1N(c1ccc(Cl)cc1)CC2C (stereo not given)
0.02 | Cc1nnc2n1-c1ccccc1N(c1ccc(Cl)cc1)C(C)C2 (stereo not given)
0.04 | Cc1nnc2n1-c1ccc(-c3cnn(C)c3)cc1N(c1ccc(Cl)cc1)CC2
0.01 | Cc1noc2c1-c1ccc(-c3cnn(C)c3)cc1N(c1ccc(C#N)cc1)CC2CC(N)=O (stereo not given)

test system: not listed separately; assay: Intrinsic clearance in human liver microsomes; settings: not given

SMILES | microsomal CLint
Cc1noc2c1-c1ccc(-c3cnn(CC(N)=O)c3)cc1N(c1ccc(C#N)cc1)CC2C (stereo not given) | 33 µL/min/mg
Cc1noc2c1-c1ccc(-c3ccc(=O)n(C)c3)cc1N(c1ccc(C#N)cc1)CC2C (stereo not given) | 52 µL/min/mg
Cc1noc2c1-c1ccccc1N(c1ccc(C#N)cc1)CC2 | 17 µL/min/mg
Cc1noc2c1-c1ccc(-c3ccc(N)nc3)cc1N(c1ccc(C#N)cc1)CC2C (stereo not given) | 62 µL/min/mg
Cc1noc2c1-c1ccc(-c3ccc(N)nc3)cc1N(c1ccc(C#N)cc1)CC2 | 86 µL/min/mg

Other lines, results leading:

microsomal CLint | SMILES
44 µL/min/mg | CCNC(=O)CC1CN(c2ccc(Cl)cc2)c2ccccc2-n2c(C)nnc21 (stereo not given)
6.4 µL/min/mg | Cc1nnc2n1-c1ccc(-c3ccc(N)nc3)cc1N(c1ccc(Cl)cc1)CC2C (stereo not given)
25 µL/min/mg | Cc1nnc2n1-c1ccccc1N(c1ccc(Cl)cc1)C(C)C2 (stereo not given)
14 µL/min/mg | Cc1nnc2n1-c1ccc(-c3cnn(C)c3)cc1N(c1ccc(Cl)cc1)CC2
27 µL/min/mg | Cc1noc2c1-c1ccc(-c3cnn(C)c3)cc1N(c1ccc(C#N)cc1)CC2CC(N)=O (stereo not given)
